The record followed here is US7399826B1, “Peptide for promoting healing of fractures” (priority 2003, dated 2008).

No end group written: not given here.

In the series the test system is ulnar osteotomies in New Zealand rabbits. The series is described as follows: Ulnar osteotomy fracture healing study in rabbits. Format: in vivo. The note with it: all rabbits (study and control groups); four-week study. Here is the method: Ulnar osteotomies were carried out in forty, three-month-old New Zealand rabbits. Half of the rabbits were placed in a study group while the other half was placed in a control group. All the rabbits were anesthetized using intramuscular ketamine 35 mg/kg body weight mixed with Xylazine 5 mg/kg body weight and an ophthalmic band with gentamycin ophthalmic ointment. A dose of prophylactic intramuscular cefuraxmine 25 mg/kg body weight was also administered. The forelimb was shaved and prepped in a sterile fashion. Through a posterior incision, the muscles were retracted and the shaft of the ulna was identified. Osteotomy was carried out equidistant between the olecranon and the wrist joint. The osteotomy was irrigated with normal saline. The wound was closed in layers and dressed with betadine and opsite spray. The animals were kept together in similar conditions. On the third post-operative day, the study group was injected with about 2.5-5 mg/kg of the peptide, synthesized as described above, in 0.25 ml of sterile water around the osteotomy site, while the control group received 0.25 ml of normal saline at the osteotomy site. Every week, five rabbits in the control group and five in the study group were sacrificed and their limbs were dissected and stored in 2% formalin. The study was carried out for four weeks. […]

Turning to “MIFVKTLTGKTIL [SHMSP, Met-Ile-Phe-Val-Lys-Thr-Leu-Thr-Gly-Lys-Thr-Ile-Leu]”, the “tolerability (wound infections, deaths)” value was “no wound infections or deaths”.
